Assay results: US20200347043A1, “MODULATORS OF THE INTEGRATED STRESS PATHWAY” (Calico Life Sciences LLC, priority 2019, published 2020)
pEC50: −log10 of the molar value.

Tested on: HEK293T cells carrying the ATF4 luciferase reporter
Test: ATF4-Luc assay (in vitro model of VWMD)
Assay type: cell-based, human
Conditions: 1 μg/mL tunicamycin, 7 hours, One Glo luminescence
Protocol: In order to test exemplary compounds of the invention in a cellular context, a stable VWMD cell line was first constructed. The ATF4 reporter was prepared by fusing the human full-length ATF4 5′-UTR (NCBI Accession No. BC022088.2) in front of the firefly luciferase (FLuc) coding sequence lacking the initiator methionine as described in Sidrauski et al (eLife 2013). The construct was used to produce recombinant retroviruses using standard methods and the resulting viral supernatant was used to transduce HEK293T cells, which were then subsequently selected with puromycin to generate a stable cell line.
HEK293T cells carrying the ATF4 luciferase reporter were plated on polylysine coated 384-well plates (Greiner Bio-one) at 30,000 cells per well. Cells were treated the next day with 1 μg/mL tunicamycin and 200 nM of a compound of Formula (I) for 7 hours. Luminescence was measured using One Glo (Promega) as specified by the manufacturer. Cells were maintained in DMEM with L-glutamine supplemented with 10% heat-inactivated FBS (Gibco) and Antibiotic-Antimycotic solution (Gibco).
Table 4 below summarizes the EC50 data obtained using the ATF4-Luc assay for exemplary compounds of the invention.

SMILES | pEC50
O=C(NC12CC(N3CCC(c4ccc(Cl)cc4)C3=O)(C1)C2)[C@H]1C[C@@H](O)c2cc(Cl)ccc2O1 (single isomer, unassigned) [Compound 226, (2R,4R)-6-chloro-N-{3-[(3S*)-3-(4-chlorophenyl)-2-oxopyrrolidin-1-yl]bicyclo[1.1.1]pentan-1-yl}-4-hydroxy-3,4-dihydro-2H-1-benzopyran-2-carboxamide] | 5.70 to 6.30

Same assay, conditions: Homo sapiens, HEK-293T, 1 μg/mL tunicamycin, 7 hours, One Glo luminescence

SMILES | pEC50
O=C(COc1ccc(Cl)c(F)c1)N[C@H]1C[C@H]2O[C@@H]1C[C@@H]2c1nnc([C@H]2C[C@@H](OC(F)(F)F)C2)o1 (racemic) [Compound 168, 2-(4-chloro-3-fluorophenoxy)-N-[rac-(1R,2S,4R,5S)-5-{5-[cis-3-(trifluoromethoxy)cyclobutyl]-1,3,4-oxadiazol-2-yl}-7-oxabicyclo[2.2.1]heptan-2-yl]acetamide] | 6.30 to 6.60
O=C(NC12CCC(c3nnc([C@H]4C[C@@H](OC(F)(F)F)C4)o3)(CC1)CC2)[C@H]1C[C@@H](O)c2cc(Cl)ccc2O1 (racemic) [Compound 171, rac-(2R,4R)-6-chloro-4-hydroxy-N-(4-{5-[cis-3-(trifluoromethoxy)cyclobutyl]-1,3,4-oxadiazol-2-yl}bicyclo[2.2.2]octan-1-yl)-3,4-dihydro-2H-1-benzopyran-2-carboxamide] | > 8.00
O=C(N[C@@H]1C[C@@H]2O[C@H]1C[C@H]2c1nnc([C@H]2C[C@@H](OC(F)(F)F)C2)o1)[C@@H]1C[C@@H](O)c2cc(Cl)ccc2O1 (racemic) [Compound 185, (2S,4R)-6-chloro-4-hydroxy-N-[(1RS,2SR,4RS,5SR)-5-{5-[cis-3-(trifluoromethoxy)cyclobutyl]-1,3,4-oxadiazol-2-yl}-7-oxabicyclo[2.2.1]heptan-2-yl]-3,4-dihydro-2H-1-benzopyran-2-carboxamide] | < 5.70
O=C(N[C@@H]1C[C@@H]2O[C@H]1C[C@H]2c1nnc([C@H]2C[C@@H](OC(F)(F)F)C2)o1)[C@@H]1C[C@H](O)c2cc(Cl)ccc2O1 (racemic) [Compound 186] | 7.30 to 8.00
O=C(N[C@@H]1CC[C@@H](c2nnc([C@H]3C[C@@H](OC(F)(F)F)C3)o2)OC1)[C@@H]1C[C@H](O)c2cc(Cl)ccc2O1 (relative stereo) [Compound 170, (2S,4S)-6-chloro-4-hydroxy-N-[(3R,6S)-6-{5-[cis-3-(trifluoromethoxy)cyclobutyl]-1,3,4-oxadiazol-2-yl}oxan-3-yl]-3,4-dihydro-2H-1-benzopyran-2-carboxamide] | 6.30 to 6.60
O=C(CO[C@H]1C[C@@H](OC(F)(F)F)C1)N[C@H]1C[C@H]2C[C@@H]1C[C@@H]2NC(=O)[C@H]1C[C@@H](O)c2cc(Cl)ccc2O1 (relative stereo) [Compound 210, (2R,4R)-6-chloro-4-hydroxy-N-[(1R*,2S*,4R*,5S*)-5-(2-{[cis-3-(trifluoromethoxy)cyclobutyl]oxy}acetamido)bicyclo[2.2.1]heptan-2-yl]-3,4-dihydro-2H-1-benzopyran-2-carboxamide] | > 8.00
O=C(CO[C@H]1C[C@@H](OC(F)(F)F)C1)N[C@@H]1C[C@@H]2C[C@H]1C[C@H]2NC(=O)[C@H]1C[C@@H](O)c2cc(Cl)ccc2O1 (relative stereo) [Compound 211, (2R,4R)-6-chloro-4-hydroxy-N-[(1S*,2R*,4S*,5R*)-5-(2-{[cis-3-(trifluoromethoxy)cyclobutyl]oxy}acetamido)bicyclo[2.2.1]heptan-2-yl]-3,4-dihydro-2H-1-benzopyran-2-carboxamide] | > 8.00
O=C(COc1ccc(Cl)c(F)c1)NC12CC(c3nnc([C@H]4C[C@@H](O)c5cc(Cl)ccc5O4)o3)(C1)C2 (relative stereo) [Compound 252, 2-(4-chloro-3-fluorophenoxy)-N-(3-{5-[(2R*,4R*)-6-chloro-4-hydroxy-3,4-dihydro-2H-1-benzopyran-2-yl]-1,3,4-oxadiazol-2-yl}bicyclo[1.1.1]pentan-1-yl)acetamide] | > 8.00
O=C(COc1ccc(Cl)c(F)c1)NC12CC(c3nnc([C@@H]4C[C@H](O)c5cc(Cl)ccc5O4)o3)(C1)C2 (relative stereo) [Compound 253, 2-(4-chloro-3-fluorophenoxy)-N-(3-{5-[(2S*,4S*)-6-chloro-4-hydroxy-3,4-dihydro-2H-1-benzopyran-2-yl]-1,3,4-oxadiazol-2-yl}bicyclo[1.1.1]pentan-1-yl)acetamide] | 7.30 to 8.00
O=C(NC12CC(c3nc(-c4ccc(Cl)c(F)c4)no3)(C1)C2)[C@@H]1C[C@H](O)c2cc(Cl)ccc2O1 (single isomer, unassigned) [Compound 199] | 6.60 to 7.30
O=C(NC12CC(n3cnc(-c4ccc(C(F)(F)F)nc4)c3)(C1)C2)[C@@H]1C[C@H](O)c2cc(Cl)ccc2O1 (single isomer, unassigned) [Compound 200] | 6.60 to 7.30
O=C(NC12CC(c3nc(-c4ccc(Cl)c(F)c4)no3)(C1)C2)[C@H]1C[C@@H](O)c2cc(Cl)ccc2O1 (single isomer, unassigned) [Compound 202] | > 8.00
O=C(NC12CC(N3CCC(c4ccc(Cl)cc4)C3=O)(C1)C2)[C@H]1C[C@@H](O)c2cc(Cl)ccc2O1 (single isomer, unassigned) [Compound 225, (2R,4R)-6-chloro-N-{3-[(3R*)-3-(4-chlorophenyl)-2-oxopyrrolidin-1-yl]bicyclo[1.1.1]pentan-1-yl}-4-hydroxy-3,4-dihydro-2H-1-benzopyran-2-carboxamide] | 5.70 to 6.30
O=C(CO[C@H]1C[C@@H](OC(F)(F)F)C1)NC12CCC(NC(=O)[C@@H]3C[C@@H](O)c4cc(Cl)ccc4O3)(CC1)C[C@@H]2O (single isomer, unassigned) [Compound 279] | > 8.00
O=C(CO[C@H]1C[C@@H](OC(F)(F)F)C1)NC12CC(NC(=O)[C@H]3C[C@H](O)c4cc(Cl)ccc4O3)(C1)C2 (single isomer, unassigned) [Compound 293] | > 8.00
O=C1CC(C(=O)N[C@H]2C[C@H]3CC[C@@H](C2)N3CCCOc2ccc(Cl)cc2)Oc2ccc(Cl)cc21 (some centres unmarked) [Compound 101] | < 5.70
CN(C(=O)COc1ccc(Cl)c(F)c1)[C@H]1CC[C@H](NC(=O)[C@H]2C[C@@H](O)c3cc(Cl)ccc3O2)CC1 [Compound 102, (2R,4R)-6-chloro-N-[(1r,4R)-4-{[(4-chloro-3-fluorophenoxy)acetyl](methyl)amino}cyclohexyl]-4-hydroxy-3,4-dihydro-2H-1-benzopyran-2-carboxamide] | 7.30 to 8.00
O=C(COc1ccc(Cl)c(F)c1)NC12CC(C(=O)NCC3CC(=O)c4cc(Cl)ccc4O3)(C1)C2 (centres unmarked) [Compound 103, 3-[2-(4-chloro-3-fluorophenoxy)acetamido]-N-[(6-chloro-4-oxo-3,4-dihydro-2H-1-benzopyran-2-yl)methyl]bicyclo[1.1.1]pentane-1-carboxamide] | 6.60 to 7.30
O=C(N[C@H]1CC[C@H](C(=O)NCc2ccc(C(F)(F)F)cn2)CC1)[C@H]1C[C@@H](O)c2cc(Cl)ccc2O1 [Compound 105] | > 8.00
O=C1C[C@H](C(=O)NC23CCC(C(=O)NCc4ccc(C(F)(F)F)cn4)(CC2)CC3)Oc2ccc(Cl)cc21 [Compound 106, (2R)-6-chloro-4-oxo-N-[4-({[5-(trifluoromethyl)pyridin-2-yl]methyl}carbamoyl)bicyclo[2.2.2]octan-1-yl]-3,4-dihydro-2H-1-benzopyran-2-carboxamide] | 7.30 to 8.00
O=C(NC12CCC(C(=O)NCc3ccc(C(F)(F)F)cn3)(CC1)CC2)[C@H]1C[C@@H](O)c2cc(Cl)ccc2O1 [Compound 107, (2R,4R)-6-chloro-4-hydroxy-N-[4-({[5-(trifluoromethyl)pyridin-2-yl]methyl}carbamoyl)bicyclo[2.2.2]octan-1-yl]-3,4-dihydro-2H-1-benzopyran-2-carboxamide] | > 8.00
O=C1C[C@H](C(=O)NC23CC(c4nnc(COc5ccc(Cl)c(F)c5)o4)(C2)C3)Oc2ccc(Cl)cc21 [Compound 108, (2R)-6-chloro-N-(3-{5-[(4-chloro-3-fluorophenoxy)methyl]-1,3,4-oxadiazol-2-yl}bicyclo[1.1.1]pentan-1-yl)-4-oxo-3,4-dihydro-2H-1-benzopyran-2-carboxamide] | > 8.00
O=C1C[C@@H](C(=O)NC23CC(c4nnc(COc5ccc(Cl)c(F)c5)o4)(C2)C3)Oc2ccc(Cl)cc21 [Compound 109, (2S)-6-chloro-N-(3-{5-[(4-chloro-3-fluorophenoxy)methyl]-1,3,4-oxadiazol-2-yl}bicyclo[1.1.1]pentan-1-yl)-4-oxo-3,4-dihydro-2H-1-benzopyran-2-carboxamide] | 7.30 to 8.00
O=C(NC12CC(c3nnc(COc4ccc(Cl)c(F)c4)o3)(C1)C2)[C@H]1C[C@@H](O)c2cc(Cl)ccc2O1 [Compound 110, (2R,4R)-6-chloro-N-(3-{5-[(4-chloro-3-fluorophenoxy)methyl]-1,3,4-oxadiazol-2-yl}bicyclo[1.1.1]pentan-1-yl)-4-hydroxy-3,4-dihydro-2H-1-benzopyran-2-carboxamide] | > 8.00
O=C(NC12CC(c3nnc(COc4ccc(Cl)c(F)c4)o3)(C1)C2)[C@@H]1C[C@H](O)c2cc(Cl)ccc2O1 [Compound 111, (2S,4S)-6-chloro-N-(3-{5-[(4-chloro-3-fluorophenoxy)methyl]-1,3,4-oxadiazol-2-yl}bicyclo[1.1.1]pentan-1-yl)-4-hydroxy-3,4-dihydro-2H-1-benzopyran-2-carboxamide] | 7.30 to 8.00
